In ChEMBL document CHEMBL3390841, “Design and synthesis of novel N,N-glycoside derivatives of 3,3-diindolylmethanes as potential antiproliferative agents” (Medchemcomm, 2012):
Activity calls are given as the source filed them. No cut-off for these calls is given here.

Tests used:
[1] = tested on: HeLa; assay: Cytotoxicity against human HeLa cells assessed as growth inhibition after 48 hrs by MTT assay; type: functional, cell-based; parameters: unit not given here
[2] = tested on: MCF7; assay: Cytotoxicity against human MCF7 cells assessed as growth inhibition after 48 hrs by MTT assay; type: functional, cell-based
[3] = tested on: A549; assay: Cytotoxicity against human A549 cells assessed as growth inhibition after 48 hrs by MTT assay; type: functional, cell-based
[4] = tested on: HeLa; assay: Cytotoxicity against human HeLa cells assessed as inhibition of colony formation at 0.1 to 1 umol after 5 days by crystal violet staining assay; type: functional, cell-based
[5] = tested on: HeLa; assay: Antimigratory activity against human HeLa cells in low serum containing medium at 25 nmol after 24 hrs by wound healing assay; type: functional, cell-based
[6] = tested on: HeLa; assay: Cell cycle arrest in human HeLa cells assessed as accumulation at sub-G1 phase at 0.1 umol after 24 hrs (reference value: 7.8%); type: functional
[7] = tested on: HeLa; assay: Induction of apoptosis in human HeLa cells assessed as upregulation of par-4 protein expression after 24 hrs by Western blot analysis; type: functional, cell-based
[8] = tested on: HeLa; assay: Induction of apoptosis in human HeLa cells assessed as downregulation of survivin protein expression after 24 hrs by Western blot analysis; type: functional, cell-based
[9] = tested on: HeLa; assay: Induction of apoptosis in human HeLa cells assessed as downregulation of Bcl-2 protein expression after 24 hrs by Western blot analysis; type: functional, cell-based
[10] = tested on: HeLa; assay: Induction of apoptosis in human HeLa cells assessed as downregulation of GRP78 protein expression after 24 hrs by Western blot analysis; type: functional, cell-based
[11] = tested on: HeLa; assay: Antimigratory activity against human HeLa cells in low serum containing medium at 0.3 to 1 umol after 24 hrs by wound healing assay; type: functional, cell-based
[12] = tested on: HeLa; assay: Cell cycle arrest in human HeLa cells assessed as accumulation at sub-G1 phase at 1 umol after 24 hrs (reference value: 7.8%); type: functional
[13] = tested on: HeLa; assay: Cell cycle arrest in human HeLa cells assessed as accumulation at sub-G1 phase at 0.3 umol after 24 hrs (reference value: 7.8%); type: functional

CC(=O)OC[C@H]1O[C@@H](n2cc(C(c3ccc(Cl)cc3)c3cn([C@@H]4O[C@H](COC(C)=O)[C@@H](OC(C)=O)[C@H](OC(C)=O)[C@H]4OC(C)=O)c4ccc(Br)cc34)c3cc(Br)ccc32)[C@H](OC(C)=O)[C@@H](OC(C)=O)[C@@H]1OC(C)=O
IC50 [1]: 70 | IC50 [2]: > 100 µM | IC50 [3]: 24 µM

CC(=O)OC[C@H]1O[C@@H](n2cc(C(c3ccc([N+](=O)[O-])cc3)c3cn([C@@H]4O[C@H](COC(C)=O)[C@@H](OC(C)=O)[C@H](OC(C)=O)[C@H]4OC(C)=O)c4ccc(Br)cc34)c3cc(Br)ccc32)[C@H](OC(C)=O)[C@@H](OC(C)=O)[C@@H]1OC(C)=O
IC50 [1]: 3.5 | IC50 [2]: > 100 µM | IC50 [3]: 8 µM

N#Cc1ccc2[nH]cc(C(c3ccc(Cl)cc3)c3c[nH]c4ccc(C#N)cc34)c2c1
IC50 [1]: > 100 | IC50 [2]: 23.6 µM | IC50 [3]: > 100 µM

CCCCCCCC(c1c[nH]c2ccc(Br)cc12)c1c[nH]c2ccc(Br)cc12
IC50 [1]: 1.3 | IC50 [2]: 5.5 µM | IC50 [3]: 3.5 µM | inhibition [4]: Active

N#Cc1ccc2[nH]cc(C(c3ccc(Br)cc3)c3c[nH]c4ccc(C#N)cc34)c2c1
IC50 [1]: > 100 | IC50 [2]: 27.1 µM | IC50 [3]: > 100 µM

c1ccc(C(c2c[nH]c3ccccc23)c2c[nH]c3ccccc23)cc1
IC50 [1]: 21.8 | IC50 [2]: 22.2 µM | IC50 [3]: 40 µM

O=[N+]([O-])c1ccc(C(c2c[nH]c3ccc(Br)cc23)c2c[nH]c3ccc(Br)cc23)cc1
IC50 [1]: 1.5 | IC50 [2]: 3.1 µM | IC50 [3]: 5.5 µM | inhibition [4]: Active

CCCCCCCC(c1cn([C@@H]2O[C@H](COC(C)=O)[C@@H](OC(C)=O)[C@H](OC(C)=O)[C@H]2OC(C)=O)c2ccc(Br)cc12)c1cn([C@@H]2O[C@H](COC(C)=O)[C@@H](OC(C)=O)[C@H](OC(C)=O)[C@H]2OC(C)=O)c2ccc(Br)cc12
IC50 [1]: 10 | IC50 [2]: > 100 µM | IC50 [3]: 17 µM

Brc1ccc2[nH]cc(C(c3ccc4ccccc4c3)c3c[nH]c4ccc(Br)cc34)c2c1
IC50 [1]: 4.3 | IC50 [2]: 7.1 µM | IC50 [3]: 8.5 µM

Oc1ccc(C(c2c[nH]c3ccc(Br)cc23)c2c[nH]c3ccc(Br)cc23)cc1
IC50 [2]: 3.5 µM

O=[N+]([O-])c1ccc(C(c2c[nH]c3ccc([N+](=O)[O-])cc23)c2c[nH]c3ccc([N+](=O)[O-])cc23)cc1
IC50 [1]: > 100 | IC50 [2]: 22.5 µM | IC50 [3]: > 100 µM

Brc1ccc(C(c2c[nH]c3ccc(Br)cc23)c2c[nH]c3ccc(Br)cc23)cc1
IC50 [1]: 1.5 | IC50 [2]: 3.2 µM | IC50 [3]: 5.6 µM | inhibition [4]: Active

Clc1ccc(C(c2c[nH]c3ccc(Br)cc23)c2c[nH]c3ccc(Br)cc23)cc1
IC50 [1]: 4.8 | IC50 [2]: 3.5 µM | IC50 [3]: 8.5 µM | inhibition [4]: Active

COc1ccc(C(c2c[nH]c3ccc(Br)cc23)c2c[nH]c3ccc(Br)cc23)c(OC)c1
IC50 [1]: 63.2 | IC50 [2]: 77.5 µM | IC50 [3]: 100 µM

OC[C@H]1O[C@@H](n2cc(C(c3ccc(Cl)cc3)c3cn([C@@H]4O[C@H](CO)[C@@H](O)[C@H](O)[C@H]4O)c4ccc(Br)cc34)c3cc(Br)ccc32)[C@H](O)[C@@H](O)[C@@H]1O
IC50 [1]: 32 | IC50 [2]: 53.2 µM | IC50 [3]: 2.7 µM

Brc1ccc2[nH]cc(C(c3ccccc3)c3c[nH]c4ccc(Br)cc34)c2c1
IC50 [1]: 0.9 | IC50 [2]: 5.5 µM | IC50 [3]: 7.5 µM

COc1ccc(OC)c(C(c2c[nH]c3ccc(Br)cc23)c2c[nH]c3ccc(Br)cc23)c1
IC50 [1]: 5.1 | IC50 [2]: 2.8 µM | IC50 [3]: 10 µM

COc1ccc(C(c2c[nH]c3ccc(Br)cc23)c2c[nH]c3ccc(Br)cc23)cc1OC
IC50 [1]: 6.1 | IC50 [2]: 7.8 µM | IC50 [3]: 12 µM

CCCCCCCC(c1c[nH]c2ccc(C#N)cc12)c1c[nH]c2ccc(C#N)cc12
IC50 [1]: 7 | IC50 [2]: 2.5 µM | IC50 [3]: 26 µM

Brc1ccc2[nH]cc(C(c3c[nH]c4ccc(Br)cc34)C3CCCCC3)c2c1
IC50 [1]: 3.2 | IC50 [2]: 4.1 µM | IC50 [3]: 5.5 µM

COc1ccc(C(c2c[nH]c3ccc(Br)cc23)c2c[nH]c3ccc(Br)cc23)cc1
IC50 [1]: 5.5 | IC50 [2]: 2.3 µM | IC50 [3]: 10 µM

COc1cccc(C(c2c[nH]c3ccc(Br)cc23)c2c[nH]c3ccc(Br)cc23)c1OC
IC50 [1]: 64.5 | IC50 [2]: 89 µM | IC50 [3]: 100 µM

O=[N+]([O-])c1ccc(C(c2cn([C@@H]3O[C@H](CO)[C@@H](O)[C@H](O)[C@H]3O)c3ccc(Br)cc23)c2cn([C@@H]3O[C@H](CO)[C@@H](O)[C@H](O)[C@H]3O)c3ccc(Br)cc23)cc1
IC50 [1]: 30 | IC50 [2]: 66.7 µM | IC50 [3]: 2.4 µM

CC(c1ccccc1)(c1c[nH]c2ccccc12)c1c[nH]c2ccccc12
IC50 [1]: 4.2 | IC50 [2]: 4 µM | IC50 [3]: 8.5 µM

CC(=O)OC[C@H]1O[C@@H](n2cc(C(c3ccc(Br)cc3)c3cn([C@@H]4O[C@H](COC(C)=O)[C@@H](OC(C)=O)[C@H](OC(C)=O)[C@H]4OC(C)=O)c4ccc(Br)cc34)c3cc(Br)ccc32)[C@H](OC(C)=O)[C@@H](OC(C)=O)[C@@H]1OC(C)=O
IC50 [1]: 70 | IC50 [2]: > 100 µM | IC50 [3]: 24 µM

CN[C@@H]1C[C@H]2O[C@@](C)([C@@H]1OC)n1c3ccccc3c3c4c(c5c6ccccc6n2c5c31)C(=O)NC4 [STAUROSPORINE]
IC50 [2]: 0.013 µM | Activity [5]: Active

O=[N+]([O-])c1ccc2[nH]cc(C(c3ccc(Br)cc3)c3c[nH]c4ccc([N+](=O)[O-])cc34)c2c1
IC50 [1]: > 100 | IC50 [2]: > 100 µM | IC50 [3]: > 100 µM

CCCC(c1c[nH]c2ccc(Br)cc12)c1c[nH]c2ccc(Br)cc12
IC50 [1]: 3.9 | IC50 [2]: 3.6 µM | IC50 [3]: 6.5 µM

Oc1cccc(C(c2c[nH]c3ccc(Br)cc23)c2c[nH]c3ccc(Br)cc23)c1
IC50 [1]: 3.9 | IC50 [2]: 2.8 µM | IC50 [3]: 8 µM

CC[C@@]1(O)C(=O)OCc2c1cc1n(c2=O)Cc2cc3ccccc3nc2-1 [CAMPTOTHECIN]
Activity [6]: 33.1%

CCCCCCCC(c1cn([C@@H]2O[C@H](CO)[C@@H](O)[C@H](O)[C@H]2O)c2ccc(Br)cc12)c1cn([C@@H]2O[C@H](CO)[C@@H](O)[C@H](O)[C@H]2O)c2ccc(Br)cc12
Activity [7]: Dose-dependent effect | IC50 [1]: 0.3 | Activity [8]: Dose-dependent effect | Activity [9]: Dose-dependent effect | IC50 [2]: 0.9 µM | Activity [10]: Dose-dependent effect | IC50 [3]: 1.3 µM | Activity [6]: 27.8% | Activity [11]: Active | Activity [12]: 22.4% | Activity [13]: 19.3% | inhibition [4]: Active

N#Cc1ccc2[nH]cc(C(c3ccc([N+](=O)[O-])cc3)c3c[nH]c4ccc(C#N)cc34)c2c1
IC50 [1]: > 100 | IC50 [2]: 23.6 µM | IC50 [3]: > 100 µM

CN(C)c1ccc(C(c2c[nH]c3ccc(Br)cc23)c2c[nH]c3ccc(Br)cc23)cc1
IC50 [1]: 12.8 | IC50 [2]: 24.9 µM | IC50 [3]: 25 µM

OC[C@H]1O[C@@H](n2cc(C(c3ccc(Br)cc3)c3cn([C@@H]4O[C@H](CO)[C@@H](O)[C@H](O)[C@H]4O)c4ccc(Br)cc34)c3cc(Br)ccc32)[C@H](O)[C@@H](O)[C@@H]1O
IC50 [1]: 27 | IC50 [2]: 51.1 µM | IC50 [3]: 2.5 µM

CCCCCCCC(c1c[nH]c2ccc([N+](=O)[O-])cc12)c1c[nH]c2ccc([N+](=O)[O-])cc12
IC50 [1]: 35 | IC50 [2]: 5.8 µM | IC50 [3]: 12.5 µM

O=[N+]([O-])c1ccc2[nH]cc(C(c3ccc(Cl)cc3)c3c[nH]c4ccc([N+](=O)[O-])cc34)c2c1
IC50 [1]: > 100 | IC50 [2]: > 100 µM | IC50 [3]: > 100 µM
